Experimental data reported in PubChem BioAssay AID330 (DTP/NCI, 2004).
Several values for one entry are separate records, joined by “and”; a condition that tells them apart may be missing. Identical values can stand only once. Inconclusive results and toxic doses are left out.

Tested on: P388 leukemia ip, CD2F1 mice, survival T/C
Experiment: NCI In Vivo Anticancer Drug Screen. Data for tumor model P388 Leukemia (intraperitoneal) in CD2F1 (CDF1) mice
Details: endpoint: median survival time, higher = longer survival
In short: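 Mice carrying the transplanted tumor received test compound or vehicle. Survival was recorded in each group, and the value is the treated-group measurement divided by that of the vehicle-treated control group.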

[1] = dose: 60.0 mg/kg/injection, schedule: Q01DX005 (ip), vehicle: saline with Tween-80
[2] = dose: 120.0 mg/kg/injection, schedule: Q01DX005 (ip), vehicle: saline with Tween-80
[3] = dose: 240.0 mg/kg/injection, schedule: Q01DX005 (ip), vehicle: saline with Tween-80
[4] = dose: 1.56 mg/kg/injection, schedule: Q01DX009 (ip), vehicle: water
[5] = dose: 12.5 mg/kg/injection, schedule: Q01DX009 (ip), vehicle: saline with Tween-80
[6] = dose: 25.0 mg/kg/injection, schedule: Q01DX009 (ip), vehicle: saline with Tween-80
[7] = dose: 50.0 mg/kg/injection, schedule: Q01DX009 (ip), vehicle: saline with Tween-80
[8] = dose: 50.0 mg/kg/injection, schedule: Q01DX005 (ip), vehicle: Klucel (hydroxypropylcellulose) (HPC)
[9] = dose: 50.0 mg/kg/injection, schedule: Q01DX009 (ip), vehicle: Klucel (hydroxypropylcellulose) (HPC)
[10] = dose: 100.0 mg/kg/injection, schedule: Q01DX009 (ip), vehicle: Klucel (hydroxypropylcellulose) (HPC)
[11] = dose: 200.0 mg/kg/injection, schedule: Q01DX009 (ip), vehicle: Klucel (hydroxypropylcellulose) (HPC)
[12] = dose: 50.0 mg/kg/injection, schedule: Q01DX005 (ip), vehicle: saline

CC(=O)NC(Cc1ccc(N(CCCl)CCCl)cc1)C(=O)NC(CC(C)C)C(=O)O (centres undefined)
T/C (dose: 5.0 mg/kg/injection, schedule: Q04DX003 (ip), vehicle: water): 100 % of control
T/C (dose: 8.4 mg/kg/injection, schedule: Q04DX003 (ip), vehicle: saline with Tween-80): 111 % of control
T/C (dose: 10.0 mg/kg/injection, schedule: Q04DX003 (ip), vehicle: water): 95 % of control
T/C (dose: 18.9 mg/kg/injection, schedule: Q04DX003 (ip), vehicle: saline with Tween-80): 121 % of control
T/C (dose: 20.0 mg/kg/injection, schedule: Q04DX003 (ip), vehicle: water): 118 % of control
T/C (dose: 42.6 mg/kg/injection, schedule: Q04DX003 (ip), vehicle: saline with Tween-80): 173 % of control
T/C (dose: 64.0 mg/kg/injection, schedule: Q04DX003 (ip), vehicle: saline with Tween-80): 166 % of control
T/C (dose: 96.0 mg/kg/injection, schedule: Q04DX003 (ip), vehicle: saline with Tween-80): 180 % of control

O=P(OC1=CCCCC1)(c1ccccc1)c1ccccc1
T/C [1]: 99 % of control
T/C [2]: 100 % of control
T/C [3]: 97 % of control

COc1cccc2c1C(=O)c1c(O)c3c(c(O)c1C2=O)C[C@@](O)(/C(CO)=N/NS(=O)(=O)c1ccc(C)cc1)C[C@@H]3OC1CC(N)C(O)C(C)O1 (some centres undefined)
T/C (dose: 0.2 mg/kg/injection, schedule: Q01DX009 (ip), vehicle: water): 105 % of control
T/C (dose: 0.39 mg/kg/injection, schedule: Q01DX009 (ip), vehicle: water): 112 % of control
T/C (dose: 0.78 mg/kg/injection, schedule: Q01DX009 (ip), vehicle: water): 94 % of control
T/C [4]: 116 % of control and 118 % of control

CC1(C)OC(C(CCl)OS(C)(=O)=O)C(C(CCl)OS(C)(=O)=O)O1 (centres undefined)
T/C (dose: 50.0 mg/kg/injection, schedule: Q04DX003 (ip), vehicle: Klucel (hydroxypropylcellulose) (HPC)): 92 % of control
T/C (dose: 100.0 mg/kg/injection, schedule: Q04DX003 (ip), vehicle: Klucel (hydroxypropylcellulose) (HPC)): 100 % of control
T/C (dose: 200.0 mg/kg/injection, schedule: Q04DX003 (ip), vehicle: Klucel (hydroxypropylcellulose) (HPC)): 100 % of control

COC(=O)C(C)=O
T/C (dose: 100.0 mg/kg/injection, schedule: Q04DX003 (ip), vehicle: saline): 100 % of control
T/C (dose: 200.0 mg/kg/injection, schedule: Q04DX003 (ip), vehicle: saline): 90 % of control
T/C (dose: 400.0 mg/kg/injection, schedule: Q04DX003 (ip), vehicle: saline): 90 % of control

ClC1=C(Cl)C(Cl)=C(Cl)C1=Cc1ccccc1
T/C (dose: 6.25 mg/kg/injection, schedule: Q01DX009 (ip), vehicle: saline with Tween-80): 108 % of control
T/C [5]: 118 % of control
T/C [6]: 117 % of control
T/C [7]: 123 % of control

CC1=CC(=O)C(c2ccc(O)cc2O)=CC1=O
T/C (dose: 2.5 mg/kg/injection, schedule: Q01DX009 (ip), vehicle: saline with Tween-80): 100 % of control
T/C (dose: 5.0 mg/kg/injection, schedule: Q01DX009 (ip), vehicle: saline with Tween-80): 95 % of control
T/C (dose: 10.0 mg/kg/injection, schedule: Q01DX009 (ip), vehicle: saline with Tween-80): 86 % of control

C1CCCCC2=NCCC(CCCC1)C2 (centres undefined)
T/C [8]: 103 % of control
T/C (dose: 100.0 mg/kg/injection, schedule: Q01DX005 (ip), vehicle: Klucel (hydroxypropylcellulose) (HPC)): 107 % of control

O=C(CNC(=O)c1ccccc1)N/N=C/c1ccc2c(c1)OCO2
T/C [6]: 100 % of control
T/C (dose: 400.0 mg/kg/injection, schedule: Q01DX009 (ip), vehicle: saline with Tween-80): 96 % of control

COc1cccc(/C=N\NC(=O)C(=O)N/N=C\c2cccc(OC)c2O)c1O
T/C [9]: 86 % of control
T/C [10]: 89 % of control
T/C [11]: 92 % of control

CCOC(=O)C1CC(c2ccccc2)=NN1c1ccccc1 (centres undefined)
T/C (dose: 25.0 mg/kg/injection, schedule: Q01DX009 (ip), vehicle: Klucel (hydroxypropylcellulose) (HPC)): 96 % of control
T/C [9]: 96 % of control
T/C [10]: 99 % of control
T/C [11]: 99 % of control
T/C (dose: 400.0 mg/kg/injection, schedule: Q01DX009 (ip), vehicle: Klucel (hydroxypropylcellulose) (HPC)): 96 % of control

[Cu+2].[O-]c1ccc(Br)c2cccnc12.[O-]c1ccc(Br)c2cccnc12
T/C [5]: 104 % of control
T/C [6]: 100 % of control
T/C (dose: 33.0 mg/kg/injection, schedule: Q04DX003 (ip), vehicle: saline with Tween-80): 90 % of control
T/C [7]: 104 % of control

CC(=O)OC(C)N(C(C)=O)c1ncc([N+](=O)[O-])s1 (centres undefined)
T/C [6]: 100 % of control
T/C [7]: 101 % of control
T/C (dose: 100.0 mg/kg/injection, schedule: Q01DX009 (ip), vehicle: saline with Tween-80): 106 % of control
T/C (dose: 200.0 mg/kg/injection, schedule: Q01DX009 (ip), vehicle: saline with Tween-80): 110 % of control

CC1(CO)COC(c2ccc(Cl)cc2)N1 (centres undefined)
T/C (dose: 50.0 mg/kg/injection, schedule: Q01DX005 (ip), vehicle: acetone): 106 % of control
T/C (dose: 100.0 mg/kg/injection, schedule: Q01DX005 (ip), vehicle: acetone): 106 % of control
T/C (dose: 200.0 mg/kg/injection, schedule: Q01DX005 (ip), vehicle: acetone): 112 % of control

CC1CCC2C(C)(C)C3CC12CC1OC13C (centres undefined)
T/C [1]: 100 % of control
T/C [2]: 91 % of control
T/C [3]: 96 % of control

N#Cc1[nH]ncc1[N+](=O)[O-]
T/C (dose: 25.0 mg/kg/injection, schedule: Q01DX001 (ip), vehicle: saline with Tween-80): 100 % of control
T/C (dose: 50.0 mg/kg/injection, schedule: Q01DX001 (ip), vehicle: saline with Tween-80): 106 % of control
T/C (dose: 100.0 mg/kg/injection, schedule: Q01DX001 (ip), vehicle: saline with Tween-80): 101 % of control

COc1cccc2c1C(=O)c1c(OC)c(C)cc(OC)c1C2=O
T/C [4]: 100 % of control
T/C (dose: 3.13 mg/kg/injection, schedule: Q01DX009 (ip), vehicle: water): 107 % of control
T/C (dose: 6.25 mg/kg/injection, schedule: Q01DX009 (ip), vehicle: water): 110 % of control
T/C (dose: 12.5 mg/kg/injection, schedule: Q01DX009 (ip), vehicle: water): 110 % of control
T/C (dose: 25.0 mg/kg/injection, schedule: Q01DX009 (ip), vehicle: water): 110 % of control

CC(=O)SCC[n+]1cc2ccccc2c2ccccc21
T/C (dose: 3.12 mg/kg/injection, schedule: Q01DX005 (ip), vehicle: Klucel (hydroxypropylcellulose) (HPC)): 95 % of control
T/C (dose: 6.25 mg/kg/injection, schedule: Q01DX005 (ip), vehicle: Klucel (hydroxypropylcellulose) (HPC)): 99 % of control
T/C (dose: 12.5 mg/kg/injection, schedule: Q01DX005 (ip), vehicle: Klucel (hydroxypropylcellulose) (HPC)): 105 % of control and 108 % of control
T/C (dose: 25.0 mg/kg/injection, schedule: Q01DX005 (ip), vehicle: Klucel (hydroxypropylcellulose) (HPC)): 100 % of control
T/C [8]: 115 % of control and 118 % of control

CCOP(O)(=S)OCC.[Sm]
T/C (dose: 100.0 mg/kg/injection, schedule: Q01DX001 (ip), vehicle: Klucel (hydroxypropylcellulose) (HPC)): 88 % of control
T/C (dose: 200.0 mg/kg/injection, schedule: Q01DX001 (ip), vehicle: Klucel (hydroxypropylcellulose) (HPC)): 88 % of control
T/C (dose: 400.0 mg/kg/injection, schedule: Q01DX001 (ip), vehicle: Klucel (hydroxypropylcellulose) (HPC)): 94 % of control

CC(=O)[OH+]c1c(Br)cc(Br)cc1C(=O)[O-].CC(=O)[OH+]c1c(Br)cc(Br)cc1C(=O)[O-].[Cu+2]
T/C (dose: 12.5 mg/kg/injection, schedule: Q01DX005 (ip), vehicle: saline with Tween-80): 101 % of control
T/C (dose: 25.0 mg/kg/injection, schedule: Q01DX005 (ip), vehicle: saline with Tween-80): 100 % of control
T/C [12]: 102 % of control

CCN(CC)CCSc1c2ccc(Cl)cc2nc2ccc(OC)cc12
T/C (dose: 12.5 mg/kg/injection, schedule: Q01DX005 (ip), vehicle: saline): 106 % of control
T/C (dose: 25.0 mg/kg/injection, schedule: Q01DX005 (ip), vehicle: saline): 106 % of control
T/C [12]: 105 % of control and 106 % of control

C=C(C)C(=O)Oc1ccccc1/C=C/C(=O)CCCCCC
T/C (dose: 50.0 mg/kg/injection, schedule: Q01DX005 (ip), vehicle: saline with Tween-80): 98 % of control
T/C (dose: 100.0 mg/kg/injection, schedule: Q01DX005 (ip), vehicle: saline with Tween-80): 96 % of control
T/C (dose: 200.0 mg/kg/injection, schedule: Q01DX005 (ip), vehicle: saline with Tween-80): 88 % of control
